We go through four compounds from BindingDB's records for doi:10.1074/jbc.M112.341321 (Council of Scientific and Industrial Research (Csir) Indian …, 2012).

Common to all, as to assay: Tautomerase Activity Assay
For experiment [1], the target named is T1, Macrophage migration inhibitory factor (Homo sapiens, UniProt P14174).
T1 sequence (P14174 whole entry): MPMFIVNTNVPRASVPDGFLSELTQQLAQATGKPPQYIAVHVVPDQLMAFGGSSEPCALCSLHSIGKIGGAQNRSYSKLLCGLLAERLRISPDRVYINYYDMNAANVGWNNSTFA
An excerpt: (§1) The tautomerase activity of MIFs was monitored by following the tautomerization of L-dopachrome methyl ester by the recombinant MIFs in the presence or absence of increasing concentrations of all six limonoids extracted from neem.

The target of experiment [2] is T2, Macrophage migration inhibitory factor (Plasmodium falciparum (isolate 3D7), UniProt Q8I5C5).
T2 sequence (Q8I5C5 whole entry): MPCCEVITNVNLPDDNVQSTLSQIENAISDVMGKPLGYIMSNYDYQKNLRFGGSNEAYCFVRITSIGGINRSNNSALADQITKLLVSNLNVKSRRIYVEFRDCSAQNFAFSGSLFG
Source text: as §1

Experiment [3] concerns the target T3, Macrophage migration inhibitory factor-like protein (Plasmodium yoelii yoelii, UniProt Q1HEA2).
T3 sequence (Q1HEA2 whole entry): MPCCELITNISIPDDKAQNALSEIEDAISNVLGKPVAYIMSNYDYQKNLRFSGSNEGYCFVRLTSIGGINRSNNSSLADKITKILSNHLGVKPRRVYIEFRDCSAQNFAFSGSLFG
Source text: as §1

On to `C/C=C(\C)C(=O)O[C@H]1C[C@@H](OC(C)=O)[C@@]2(C)CO[C@H]3[C@H]4O[C@@H]5C[C@@H](c6ccoc6)C(C)=C5[C@@]4(C)[C@H](CC(=O)OC)[C@]1(C)[C@@H]32` [Salannin], for which the IC50 in experiment [1] was found to be 85.3 µM; in experiment [2] it was 89.5 µM; in experiment [3], 95.2 µM.
In the same order, the values of `CC(=O)O[C@@H]1C[C@H]2C(C)(C)C(=O)C=C[C@]2(C)[C@H]2CC[C@]3(C)C(=CC(=O)[C@H]3c3ccoc3)[C@@]21C` [Azadiradione] are 35.2 µM, 45.6 µM and 43 µM.
In the same order, the values of `COC(=O)C[C@H]1[C@]2(C)C3=C(C)[C@H](c4ccoc4)C[C@H]3O[C@@H]2[C@H](OC(C)=O)[C@@H]2[C@]1(C)C(=O)C=C[C@@]2(C)C(=O)OC` [Nimbin] are 17.5 µM, 22.5 µM and 22.4 µM.
`CC(=O)O[C@@H]1C[C@H]2C(C)(C)C(=O)C=C[C@]2(C)[C@H]2CC[C@@]3(C)[C@H](c4ccoc4)C(=O)[C@H]4O[C@]43[C@@]21C` [Epoxyazadiradione]: the IC50 turned out to be 9.5 µM in experiment [2] and 9.8 µM in experiment [3].

Broadly, the IC50 is the concentration needed to halve the response being measured. Higher therefore signals a need for much substance.
